Numbers after ± are expanded uncertainties.
Key:
[1] = 101 kPa, Liquid; for viscosity: Capillary tube (Ostwald / Ubbelohde) method; for mass density: Vibrating tube method
[2] = xn = mol fraction of the nth substance listed; conditions: 101 kPa, Liquid, x2 = 0; for viscosity: Capillary tube (Ostwald / Ubbelohde) method; for mass density: Vibrating tube method

SMILES	viscosity ([1]; 293.15 K) [mPa·s]	mass density ([1]; 293.15 K) [kg/m3]	viscosity ([1]; 303.15 K) [mPa·s]	mass density ([1]; 303.15 K) [kg/m3]	viscosity ([1]; 313.15 K) [mPa·s]	mass density ([1]; 313.15 K) [kg/m3]	viscosity ([1]; 323.15 K) [mPa·s]	mass density ([1]; 323.15 K) [kg/m3]	mass density ([1]; 333.15 K) [kg/m3]	viscosity ([2]; 293.15 K) [mPa·s]	mass density ([2]; 293.15 K) [kg/m3]	viscosity ([2]; 303.15 K) [mPa·s]	mass density ([2]; 303.15 K) [kg/m3]	viscosity ([2]; 313.15 K) [mPa·s]	mass density ([2]; 313.15 K) [kg/m3]	viscosity ([2]; 323.15 K) [mPa·s]	mass density ([2]; 323.15 K) [kg/m3]	viscosity ([2]; 333.15 K) [mPa·s]	mass density ([2]; 333.15 K) [kg/m3]	viscosity ([1]; 333.15 K) [mPa·s]
CCCO [propan-1-ol]	2.204 ± 0.02	809.62 ± 5	1.615 ± 0.015	801.43 ± 5	1.188 ± 0.011	793.09 ± 5	0.8796 ± 0.0084	784.54 ± 5	775.74 ± 5	–	–	–	–	–	–	–	–	–	–	–
CCCO [propan-1-ol] + CCCCCCn1cc[n+](C)c1.F[B-](F)(F)F	–	–	–	–	–	–	–	–	–	2.204 ± 0.02	809.62 ± 5	1.615 ± 0.015	801.43 ± 5	1.188 ± 0.011	793.09 ± 5	0.8796 ± 0.0084	784.54 ± 5	0.5985 ± 0.006	775.74 ± 5	–
CCCCCCn1cc[n+](C)c1.F[B-](F)(F)F [1-hexyl-3-methylimidazolium tetrafluoroborate]	232.65	1149.24 ± 5.1	130.02	1142.48 ± 5.1	78.24	1135.79 ± 5.1	50.3	1129.08 ± 5.1	1122.37 ± 5.1	–	–	–	–	–	–	–	–	–	–	34.02
